Source: the supplement of paper PMC10307832

Assays:
Experiment in all cases: relative viability (nuclei count vs DMSO), 5 days (fraction); higher = more cells survive
[1] = compound: CC1=CC(=CC=C1)NC2=NC(=CS2)C3=CC=NC=C3 + CS(=O)(=O)CCNCc1ccc(-c2ccc3ncnc(Nc4ccc(OCc5cccc(F)c5)c(Cl)c4)c3c2)o1 [Lapatinib] (partner 2 µM)
Outline: (§1)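 Dosing by pin tool came one day after lung cancer cell lines were seeded in 1536-well plates, using either one drug or a fixed anchor-drug dose plus five library-drug doses (not always all listed) in √10 steps. After 5 days, nuclei were counted on 4× images. Relative viability is treated-well nuclei count divided by vehicle-well nuclei count, and values are medians of duplicate plates.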

[2] = compound: CC1=CC(=CC=C1)NC2=NC(=CS2)C3=CC=NC=C3 + CS(=O)(=O)N1CCN(Cc2cc3nc(-c4cccc5[nH]ncc45)nc(N4CCOCC4)c3s2)CC1 [Pictilisib] (partner 1 µM)
Outline: as §1

Masitinib + Lapatinib = compound: Cc1ccc(NC(=O)c2ccc(CN3CCN(C)CC3)cc2)cc1Nc1nc(-c2cccnc2)cs1 [Masitinib] + CS(=O)(=O)CCNCc1ccc(-c2ccc3ncnc(Nc4ccc(OCc5cccc(F)c5)c(Cl)c4)c3c2)o1 [Lapatinib] (partner 2 µM)
Outline: as §1

Masitinib + Alpelisib = compound: Cc1ccc(NC(=O)c2ccc(CN3CCN(C)CC3)cc2)cc1Nc1nc(-c2cccnc2)cs1 [Masitinib] + Cc1nc(NC(=O)N2CCC[C@H]2C(N)=O)sc1-c1ccnc(C(C)(C)C(F)(F)F)c1 [Alpelisib] (partner 2 µM)
Outline: as §1

Cell Line: IA-LM
- relative viability ([1]; first compound 0.08 µM): 0.65
- relative viability ([1]; first compound 0.253 µM): 0.503
- relative viability ([1]; first compound 0.8 µM): 0.561
- relative viability ([1]; first compound 2.53 µM): 0.508
- relative viability ([1]; first compound 8 µM): 0.572
- relative viability ([2]; first compound 0.08 µM): 0.24
- relative viability ([2]; first compound 0.253 µM): 0.337
- relative viability ([2]; first compound 0.8 µM): 0.415
- relative viability ([2]; first compound 2.53 µM): 0.267
- relative viability ([2]; first compound 8 µM): 0.427
- relative viability (Masitinib + Lapatinib; first compound 0.1 µM): 0.891
- relative viability (Masitinib + Lapatinib; first compound 0.3162 µM): 0.928
- relative viability (Masitinib + Lapatinib; first compound 1 µM): 1.07
- relative viability (Masitinib + Alpelisib; first compound 0.01 µM): 0.823
- relative viability (Masitinib + Alpelisib; first compound 0.03162 µM): 0.758
- relative viability (Masitinib + Alpelisib; first compound 0.1 µM): 1.07
- relative viability (Masitinib + Alpelisib; first compound 0.3162 µM): 0.762
- relative viability (Masitinib + Alpelisib; first compound 1 µM): 0.787

Cell Line: NCI-H650
- relative viability ([1]; first compound 0.08 µM): 0.708
- relative viability ([1]; first compound 0.253 µM): 0.815
- relative viability ([1]; first compound 0.8 µM): 1.32
- relative viability ([1]; first compound 8 µM): 0.975
- relative viability ([2]; first compound 0.08 µM): 0.771
- relative viability ([2]; first compound 0.253 µM): 0.863
- relative viability ([2]; first compound 0.8 µM): 0.893
- relative viability ([2]; first compound 8 µM): 0.822
- relative viability (Masitinib + Lapatinib; first compound 0.01 µM): 0.927
- relative viability (Masitinib + Lapatinib; first compound 0.03162 µM): 0.859
- relative viability (Masitinib + Lapatinib; first compound 0.1 µM): 1.09
- relative viability (Masitinib + Lapatinib; first compound 0.3162 µM): 1.07
- relative viability (Masitinib + Lapatinib; first compound 1 µM): 1.1
- relative viability (Masitinib + Alpelisib; first compound 0.01 µM): 1.14
- relative viability (Masitinib + Alpelisib; first compound 0.03162 µM): 1.03
- relative viability (Masitinib + Alpelisib; first compound 0.1 µM): 1.17
- relative viability (Masitinib + Alpelisib; first compound 0.3162 µM): 1.31
- relative viability (Masitinib + Alpelisib; first compound 1 µM): 1.08

Cell Line: NCI-H1793
- relative viability ([1]; first compound 0.253 µM): 0.557
- relative viability ([1]; first compound 0.8 µM): 0.642
- relative viability ([1]; first compound 2.53 µM): 0.565
- relative viability ([1]; first compound 8 µM): 0.657
- relative viability ([2]; first compound 0.253 µM): 0.326
- relative viability ([2]; first compound 0.8 µM): 0.357
- relative viability ([2]; first compound 2.53 µM): 0.22
- relative viability ([2]; first compound 8 µM): 0.264
- relative viability (Masitinib + Lapatinib; first compound 0.01 µM): 0.631
- relative viability (Masitinib + Lapatinib; first compound 0.03162 µM): 0.633
- relative viability (Masitinib + Lapatinib; first compound 0.1 µM): 0.594
- relative viability (Masitinib + Lapatinib; first compound 0.3162 µM): 0.456
- relative viability (Masitinib + Lapatinib; first compound 1 µM): 0.575
- relative viability (Masitinib + Alpelisib; first compound 0.01 µM): 0.846
- relative viability (Masitinib + Alpelisib; first compound 0.03162 µM): 0.683
- relative viability (Masitinib + Alpelisib; first compound 0.1 µM): 0.878
- relative viability (Masitinib + Alpelisib; first compound 0.3162 µM): 0.82
- relative viability (Masitinib + Alpelisib; first compound 1 µM): 0.636

Cell Line: NCI-H358
- relative viability ([1]; first compound 0.08 µM): 0.433
- relative viability ([1]; first compound 0.253 µM): 0.476
- relative viability ([1]; first compound 0.8 µM): 0.554
- relative viability ([1]; first compound 2.53 µM): 0.607
- relative viability ([1]; first compound 8 µM): 0.604
- relative viability ([2]; first compound 0.08 µM): 0.289
- relative viability ([2]; first compound 0.253 µM): 0.345
- relative viability ([2]; first compound 0.8 µM): 0.307
- relative viability ([2]; first compound 2.53 µM): 0.381
- relative viability ([2]; first compound 8 µM): 0.38
- relative viability (Masitinib + Lapatinib; first compound 0.01 µM): 0.465
- relative viability (Masitinib + Lapatinib; first compound 0.03162 µM): 0.479
- relative viability (Masitinib + Lapatinib; first compound 0.1 µM): 0.492
- relative viability (Masitinib + Lapatinib; first compound 0.3162 µM): 0.494
- relative viability (Masitinib + Lapatinib; first compound 1 µM): 0.421
- relative viability (Masitinib + Alpelisib; first compound 0.01 µM): 0.734
- relative viability (Masitinib + Alpelisib; first compound 0.03162 µM): 0.802
- relative viability (Masitinib + Alpelisib; first compound 0.1 µM): 0.813
- relative viability (Masitinib + Alpelisib; first compound 0.3162 µM): 0.788
- relative viability (Masitinib + Alpelisib; first compound 1 µM): 0.852

Cell Line: NCI-H2087
- relative viability ([1]; first compound 0.08 µM): 0.823
- relative viability ([1]; first compound 0.253 µM): 0.788
- relative viability ([1]; first compound 0.8 µM): 0.846
- relative viability ([1]; first compound 2.53 µM): 1.11
- relative viability ([1]; first compound 8 µM): 0.829
- relative viability ([2]; first compound 0.08 µM): 0.616
- relative viability ([2]; first compound 0.253 µM): 0.812
- relative viability ([2]; first compound 0.8 µM): 0.851
- relative viability ([2]; first compound 2.53 µM): 0.885
- relative viability ([2]; first compound 8 µM): 0.77
- relative viability (Masitinib + Lapatinib; first compound 0.01 µM): 0.757
- relative viability (Masitinib + Lapatinib; first compound 0.03162 µM): 1.06
- relative viability (Masitinib + Lapatinib; first compound 0.1 µM): 0.77
- relative viability (Masitinib + Lapatinib; first compound 0.3162 µM): 1.22
- relative viability (Masitinib + Lapatinib; first compound 1 µM): 0.861
- relative viability (Masitinib + Alpelisib; first compound 0.01 µM): 1.07
- relative viability (Masitinib + Alpelisib; first compound 0.03162 µM): 1.05
- relative viability (Masitinib + Alpelisib; first compound 0.1 µM): 1.19
- relative viability (Masitinib + Alpelisib; first compound 0.3162 µM): 1.15
- relative viability (Masitinib + Alpelisib; first compound 1 µM): 1.08

Cell Line: NCI-H838
- relative viability ([1]; first compound 0.08 µM): 0.822
- relative viability ([1]; first compound 0.253 µM): 0.871
- relative viability ([1]; first compound 0.8 µM): 0.924
- relative viability ([1]; first compound 2.53 µM): 0.742
- relative viability ([1]; first compound 8 µM): 0.865
- relative viability ([2]; first compound 0.08 µM): 0.382
- relative viability ([2]; first compound 0.253 µM): 0.334
- relative viability ([2]; first compound 0.8 µM): 0.4
- relative viability ([2]; first compound 2.53 µM): 0.288
- relative viability ([2]; first compound 8 µM): 0.289
- relative viability (Masitinib + Lapatinib; first compound 0.01 µM): 0.808
- relative viability (Masitinib + Lapatinib; first compound 0.03162 µM): 0.846
- relative viability (Masitinib + Lapatinib; first compound 0.1 µM): 0.774
- relative viability (Masitinib + Lapatinib; first compound 0.3162 µM): 0.794
- relative viability (Masitinib + Lapatinib; first compound 1 µM): 1.02
- relative viability (Masitinib + Alpelisib; first compound 0.01 µM): 0.912
- relative viability (Masitinib + Alpelisib; first compound 0.03162 µM): 0.865
- relative viability (Masitinib + Alpelisib; first compound 0.1 µM): 0.992
- relative viability (Masitinib + Alpelisib; first compound 0.3162 µM): 0.769
- relative viability (Masitinib + Alpelisib; first compound 1 µM): 0.957

Cell Line: NCI-H460
- relative viability ([1]; first compound 0.08 µM): 0.875
- relative viability ([1]; first compound 0.253 µM): 0.901
- relative viability ([1]; first compound 0.8 µM): 0.887
- relative viability ([1]; first compound 2.53 µM): 1.11
- relative viability ([1]; first compound 8 µM): 0.692
- relative viability ([2]; first compound 0.08 µM): 0.311
- relative viability ([2]; first compound 0.253 µM): 0.257
- relative viability ([2]; first compound 0.8 µM): 0.337
- relative viability ([2]; first compound 2.53 µM): 0.354
- relative viability ([2]; first compound 8 µM): 0.336
- relative viability (Masitinib + Lapatinib; first compound 0.01 µM): 0.996
- relative viability (Masitinib + Lapatinib; first compound 0.03162 µM): 1.13
- relative viability (Masitinib + Lapatinib; first compound 0.1 µM): 0.921
- relative viability (Masitinib + Lapatinib; first compound 0.3162 µM): 1.05
- relative viability (Masitinib + Lapatinib; first compound 1 µM): 1.26
- relative viability (Masitinib + Alpelisib; first compound 0.01 µM): 0.479
- relative viability (Masitinib + Alpelisib; first compound 0.03162 µM): 0.522
- relative viability (Masitinib + Alpelisib; first compound 0.1 µM): 0.521
- relative viability (Masitinib + Alpelisib; first compound 0.3162 µM): 0.429
- relative viability (Masitinib + Alpelisib; first compound 1 µM): 0.471

Cell Line: LOU-NH91
- relative viability ([1]; first compound 0.08 µM): 0.576
- relative viability ([1]; first compound 0.253 µM): 0.613
- relative viability ([1]; first compound 0.8 µM): 0.686
- relative viability ([1]; first compound 2.53 µM): 0.705
- relative viability ([1]; first compound 8 µM): 0.551
- relative viability ([2]; first compound 0.08 µM): 0.482
- relative viability ([2]; first compound 0.253 µM): 0.382
- relative viability ([2]; first compound 0.8 µM): 0.464
- relative viability ([2]; first compound 2.53 µM): 0.44
- relative viability ([2]; first compound 8 µM): 0.468
- relative viability (Masitinib + Lapatinib; first compound 0.01 µM): 0.781
- relative viability (Masitinib + Lapatinib; first compound 0.03162 µM): 0.633
- relative viability (Masitinib + Lapatinib; first compound 0.1 µM): 0.786
- relative viability (Masitinib + Lapatinib; first compound 0.3162 µM): 0.563
- relative viability (Masitinib + Lapatinib; first compound 1 µM): 0.708
- relative viability (Masitinib + Alpelisib; first compound 0.01 µM): 0.711
- relative viability (Masitinib + Alpelisib; first compound 0.03162 µM): 0.662
- relative viability (Masitinib + Alpelisib; first compound 0.1 µM): 0.819
- relative viability (Masitinib + Alpelisib; first compound 0.3162 µM): 0.683
- relative viability (Masitinib + Alpelisib; first compound 1 µM): 0.713
